Data published in the CheMixHub ionic liquid set.
± gives the uncertainty stated by the source.

Assay: xn = mol fraction of the nth substance listed

CC(C)[C@H](N)C(=O)O + CC[n+]1ccn(C)c1.O=S(=O)([O-])O + O
viscosity [mPa·s], 100 kPa
Settings | x1 = 0.0003621, x2 = 0 | x1 = 0.0007257, x2 = 0 | x1 = 0.001091, x2 = 0 | x1 = 0.001447, x2 = 0 | x1 = 0.001793, x2 = 0 | x1 = 0.002246, x2 = 0 | x1 = 0.002701, x2 = 0
293.15 K | 1.023 ± 0.033 | 1.043 ± 0.033 | 1.064 ± 0.033 | 1.084 ± 0.033 | 1.103 ± 0.033 | 1.128 ± 0.033 | 1.154 ± 0.033
298.15 K | 0.899 ± 0.032 | 0.907 ± 0.032 | 0.916 ± 0.031 | 0.924 ± 0.031 | 0.931 ± 0.031 | 0.941 ± 0.031 | 0.952 ± 0.034
303.15 K | 0.805 ± 0.031 | 0.812 ± 0.031 | 0.82 ± 0.031 | 0.827 ± 0.031 | 0.835 ± 0.031 | 0.844 ± 0.031 | 0.854 ± 0.031
308.15 K | 0.727 ± 0.031 | 0.734 ± 0.031 | 0.742 ± 0.031 | 0.749 ± 0.031 | 0.756 ± 0.031 | 0.765 ± 0.031 | 0.774 ± 0.031
313.15 K | 0.66 ± 0.031 | 0.666 ± 0.031 | 0.673 ± 0.031 | 0.679 ± 0.031 | 0.686 ± 0.031 | 0.694 ± 0.031 | 0.703 ± 0.031

O=C(O)C(F)(F)C(F)(F)C(F)(F)C(F)(F)F + CC[n+]1ccn(C)c1.[Cl-]
102 kPa
Settings | viscosity [mPa·s]
293.15 K, x2 = 0.6636 | 295 ± 14
303.15 K, x2 = 0.3346 | 24.2 ± 1
313.15 K, x2 = 0.3346 | 17.41 ± 0.74
318.15 K, x2 = 0.5026 | 31.7 ± 1.3
323.15 K, x2 = 0.5026 | 26.6 ± 1.1
333.15 K, x2 = 0.5026 | 19.35 ± 0.81
333.15 K, x2 = 0.6636 | 39.1 ± 1.6
338.15 K, x2 = 0.3346 | 8.91 ± 0.38
338.15 K, x2 = 0.5026 | 16.68 ± 0.7
348.15 K, x2 = 0.5026 | 12.76 ± 0.54
353.15 K, x2 = 0.3346 | 6.42 ± 0.27

CC(C)=O + CC[n+]1ccn(C)c1C.F[B-](F)(F)F
101.3 kPa, x2 = 0
Settings | viscosity [mPa·s]
293.15 K | 0.325 ± 0.031
298.15 K | 0.303 ± 0.029
303.15 K | 0.297 ± 0.028
308.15 K | 0.283 ± 0.027
313.15 K | 0.269 ± 0.025
318.15 K | 0.251 ± 0.024
323.15 K | 0.244 ± 0.023

CCC(=O)[O-].C[NH+](C)Cc1ccccc1 + CN(C)C=O
viscosity [mPa·s], 101 kPa
Settings | 293.15 K | 298.15 K | 303.15 K | 308.15 K | 313.15 K | 318.15 K | 323.15 K | 328.15 K
x1 = 0.006283 | 0.957 ± 0.058 | 0.915 ± 0.055 | 0.878 ± 0.053 | 0.846 ± 0.051 | 0.817 ± 0.049 | 0.79 ± 0.048 | 0.767 ± 0.046 | 0.745 ± 0.045
x1 = 0.009868 | 0.965 ± 0.058 | 0.923 ± 0.056 | 0.885 ± 0.053 | 0.852 ± 0.051 | 0.822 ± 0.05 | 0.795 ± 0.048 | 0.771 ± 0.047 | 0.749 ± 0.045
x1 = 0.01556 | 0.974 ± 0.059 | 0.93 ± 0.056 | 0.893 ± 0.054 | 0.858 ± 0.052 | 0.828 ± 0.05 | 0.8 ± 0.048 | 0.776 ± 0.047 | 0.753 ± 0.046
x1 = 0.01941 | 0.985 ± 0.06 | 0.94 ± 0.057 | 0.901 ± 0.054 | 0.866 ± 0.052 | 0.834 ± 0.05 | 0.807 ± 0.049 | 0.781 ± 0.047 | 0.758 ± 0.046
x2 = 0.9599 | 1.036 ± 0.063 | 0.986 ± 0.06 | 0.94 ± 0.057 | 0.9 ± 0.054 | 0.865 ± 0.052 | 0.834 ± 0.05 | 0.806 ± 0.049 | 0.781 ± 0.047
x2 = 0.9647 | 1.025 ± 0.062 | 0.975 ± 0.059 | 0.932 ± 0.056 | 0.893 ± 0.054 | 0.858 ± 0.052 | 0.828 ± 0.05 | 0.801 ± 0.048 | 0.776 ± 0.047
x2 = 0.9703 | 1.012 ± 0.061 | 0.964 ± 0.058 | 0.922 ± 0.056 | 0.884 ± 0.053 | 0.851 ± 0.051 | 0.821 ± 0.05 | 0.794 ± 0.048 | 0.77 ± 0.047
x2 = 0.9751 | 0.997 ± 0.06 | 0.95 ± 0.057 | 0.91 ± 0.055 | 0.873 ± 0.053 | 0.841 ± 0.051 | 0.813 ± 0.049 | 0.787 ± 0.048 | 0.764 ± 0.046

CCCCCC[n+]1ccn(C)c1.F[B-](F)(F)F + CN(CCO)CCO
101 kPa
Settings | viscosity [mPa·s]
303.15 K, x2 = 0.3916 | 72.6 ± 4.4
303.15 K, x2 = 0.4949 | 69.8 ± 4.3
303.15 K, x2 = 0.7928 | 62.2 ± 3.8
313.15 K, x2 = 0.5936 | 41.8 ± 2.6
313.15 K, x2 = 0.8824 | 36.8 ± 2.2
318.15 K, x2 = 0.4949 | 34.3 ± 2.1

COP(=O)([O-])OC.Cn1cc[n+](C)c1 + CN(CCO)CCO + O
Settings | viscosity [mPa·s]
343.15 K, x2 = 0.4346, x3 = 0.3656 | 10.65 ± 0.65

COP(=O)([O-])OC.Cn1cc[n+](C)c1 + CO
Settings | viscosity [mPa·s]
293.15 K, 101 kPa, x2 = 0.6018 | 20.02 ± 0.43
293.15 K, 101 kPa, x2 = 0.8998 | 1.927 ± 0.041
298.15 K, 101 kPa, x2 = 0 | 291 ± 18
298.15 K, 101 kPa, x2 = 0.2977 | 86.2 ± 2.3
298.15 K, 101 kPa, x2 = 0.3984 | 54.2 ± 1.1
303.15 K, 101 kPa, x2 = 0.2009 | 95.3 ± 2.8
303.15 K, 101 kPa, x2 = 0.5028 | 24.98 ± 0.55
308.15 K, 101 kPa, x2 = 0.5028 | 21.1 ± 0.46
308.15 K, 101.33 kPa, x2 = 0 | 139.5 ± 2.6
318.15 K, 101 kPa, x2 = 0.1054 | 71.5 ± 1.8
318.15 K, 101 kPa, x2 = 0.7027 | 5.83 ± 0.13
323.15 K, 101 kPa, x2 = 0.2977 | 31.01 ± 0.7
323.15 K, 101 kPa, x2 = 0.5028 | 13.63 ± 0.3

CCCCCCCC[P+](CC)(CC)CC.O=[N+]([O-])c1cn[n-]c1 + COCCOCCOCCOCCOC
100 kPa
Settings | viscosity [mPa·s]
278.15 K, x2 = 0.503 | 78 ± 1
283.15 K, x2 = 0 | 868 ± 54
283.15 K, x2 = 0.404 | 97 ± 2
288.15 K, x2 = 0 | 578 ± 31
288.15 K, x2 = 0.102 | 327 ± 14
303.15 K, x2 = 0.051 | 170 ± 5
308.15 K, x2 = 0.199 | 69 ± 1
313.15 K, x2 = 0.199 | 55 ± 1
318.15 K, x2 = 0 | 94 ± 2

COP(=O)([O-])OC.Cn1cc[n+](C)c1 + CS(C)=O
viscosity [mPa·s], 101 kPa
Settings | 298.15 K | 313.15 K | 333.15 K
x1 = 0.1773 | 7.7 ± 0.3 | 4.8 ± 0.2 | 3.1 ± 0.1
x1 = 0.4972 | 42.7 ± 1.8 | 22.6 ± 0.9 | 11.9 ± 0.5
x1 = 0.7978 | 134.7 ± 6.9 | 59.6 ± 2.5 | 26.7 ± 1.1
